Here are results for five compounds from patent US11612627B2, “Method for preventing or treating thrombosis” (ANDONG NATIONAL UNIVERSITY INDUSTRY-ACADEMIC COOPERATION …, priority 2020, dated 2023).

Where “and” joins values, the source holds several entries; their conditions need not be identical. Equal entries are not always repeated.

In one data set the test system is coagulation factors. Kind of data set: aPTT (activated partial thromboplastin time). In kind it is biochemical. Conditions: clot time sample/clot time DMSO, 3-carene section Table 3. As to the method: Subsequently, 50 μl of CaCl2 (35 mM) was added. […] Instead of samples, DMSO served as a solvent control. […] The aPPT was expressed as a mean value of the measurements of three independent experiments.
Instead of samples, DMSO served as a solvent control. […] The aPPT was expressed as a mean value of the measurements of three independent experiments.

For a further data set, the system named is prothrombin. Briefly: Prothrombin time (plasma clotting). The data set is classed as biochemical. Conditions: clot time sample/clot time DMSO, 3-carene section Table 3. As for the experimental part: In an Amelung coagulometer KC-1A tube (Japan), 70 μl of standard plasma (MD Pacific Co., China) was heated, together with 10 μl of each of samples having various concentrations, at 37° C. for 3 min before adding 130 μl of PT reagent thereto. […] This experiment was repeated three times independently. The prothrombin time was expressed as a mean value of the three measurements.

In the next data set the test system is human erythrocytes. Briefly: Human erythrocyte lysis (hemolysis) activity. In kind it is cell-based. As to the method:
In this regard, erythrocyte lysis activity was assayed as reported previously (Sohn, Ho-Yong, 2014. Korean J. Microbiol. Biotechnol. 42: 285-292). Briefly, 100 μl of human erythrocytes, after being washed three times with PBS, was added to each well of 96-well microplates, mixed with 100 μl of each of samples having various concentrations, and incubated at 37° C. for 30 min. Subsequently, the reaction mixture was centrifuged for 10 min (1,500 rpm). After 100 μl of the supernatant was transferred to new microtiter plates, absorbance was read at 414 nm to analyze hemoglobin release according to hemolysis. DMSO (2%) was used as a solvent control for the samples while Triton X-100 (1 mg/ml) served as a control for hemolysis. Hemolysis activity was calculated according to the following equation: (%)Hemolysis=[(Abs. S−Abs. C)/(Abs. T−Abs. C)]×100
Abs. S: Absorbance of sample
Abs. C: Absorbance of DMSO
Abs. T: Absorbance of Triton X-100 added control

In another data set the test system is Human enriched platelets. Briefly: Platelet aggregation inhibition activity (collagen, whole-blood aggregometer). In kind it is cell-based. Conditions: for Platelet Aggregation Activity: AUC sample/AUC DMSO x 100; for Platelet Aggregation Curve: Amplitude / Platelet Aggregation Curve: Area under curve / Platelet Aggregation Curve: Lag time / Platelet Aggregation Curve: Slope: collagen-induced. As to the method: Platelet Aggregation Inhibition Activity Human enriched platelets were used. They were washed once with a washing buffer (138 mM NaCl, 2.7 mM KCl, 12 mM NaHCO3, 0.36 mM NaH2PO4, 5.5 mM Glucose, 1 mM EDTA, pH 6.5) and then resuspended in a suspending buffer (138 mM NaCl, 2.7 mM KCl, 12 mM NaHCO3, 0.36 mM NaH2PO4, 5.5 mM Glucose, 0.49 mM MgCl2, 0.25% gelatin, pH 7.4). Centrifugation at 3,000 rpm for 10 min was followed by resuspension in a suspending buffer, with the platelets adjusted to the density of 4×10^9/ml. Subsequently, 1 ml of the suspension was incubated with 2.5 μl of collagen for 5 min, after which platelet aggregation was measured at 37° C. using a whole-blood aggregometer (Chrono-log, USA).

The conditions of data set [1]: miscible with oil; cited from earlier work.

As for `O=C(O)c1ccc(O)cc1` [4-Hydroxybenzoic acid, 4-hydroxybenzoic acid], the “Blood coagulation inhibition activity: aPTT” value with coagulation factors (0.5 mg/ml) was determined as 0.94 ± 0.15. Moreover, the “Blood coagulation inhibition activity: Prothrombin Time” value in the data set with prothrombin (0.5 mg/ml) came out at 0.99 ± 0.00.
`C[C@@H]1[C@H](O)[C@@H](C)/C=C/C=C/C=C/C=C/C=C/C=C/C=C/[C@H](O[C@@H]2O[C@H](C)[C@@H](O)[C@H](N)[C@@H]2O)C[C@@H]2O[C@](O)(C[C@@H](O)C[C@@H](O)[C@H](O)CC[C@@H](O)C[C@@H](O)CC(=O)O[C@H]1C)C[C@H](O)[C@H]2C(=O)O` [Amphotericin B, amphotericin B]: the Human hemolytic activity was determined as 26.5 ± 9.6% with human erythrocytes (0.003 mg/ml, flower section Table 3); 38.0 ± 0.7% with human erythrocytes (0.006 mg/ml, flower section Table 3); 38.0 ± 0.7% with human erythrocytes (0.00625 mg/ml, flower section Table 6); 48.2 ± 5.9% with human erythrocytes (0.0125 mg/ml, flower section Table 6); 48.2 ± 5.9% with human erythrocytes (0.0125 mg/ml, leaf section Table 4); 59.5 ± 6.3% with human erythrocytes (0.025 mg/ml, flower section Table 3). For the same compound, the Human hemolytic activity in the data set on human erythrocytes (0.025 mg/ml, flower section Table 3, listed as amphotericin B) is at least 50%; in the data set with human erythrocytes (0.025 mg/ml, flower section Table 6), 59.5 ± 6.3%; in the data set on human erythrocytes (0.025 mg/ml, leaf section Table 4), 59.5 ± 6.3%; with human erythrocytes (0.025 mg/ml, leaf section Table 4, listed as amphotericin B), at least 50%; in the data set with human erythrocytes (0.05 mg/ml, flower section Table 3), 80.7 ± 7.3%; in the data set with human erythrocytes (0.05 mg/ml, flower section Table 6), 80.7 ± 7.3%. The “Human hemolytic activity” value in the data set with human erythrocytes (0.05 mg/ml, leaf section Table 4) was 80.7 ± 7.3%; in the data set with human erythrocytes (0.1 mg/ml, flower section Table 3), 95.8 ± 0.3%; in the data set with human erythrocytes (0.1 mg/ml, flower section Table 6), 95.8 ± 0.3%; with human erythrocytes (0.1 mg/ml, leaf section Table 4) it was 95.8 ± 0.3%.
Consider `CC(=O)Oc1ccccc1C(=O)O` [Aspirin, aspirin], for which, in the data set with Human enriched platelets (0.125 mg/ml), the “Platelet Aggregation Activity” value turned out to be 82.2%, the “Platelet Aggregation Curve: Amplitude” value is listed as 14 ohm, the “Platelet Aggregation Curve: Area under curve” value is 78.0 and the “Platelet Aggregation Curve: Lag time” value amounted to 35 s. In addition, the “Platelet Aggregation Curve: Slope” value in the data set with Human enriched platelets (0.125 mg/ml) turned out to be 2. For the same compound, in the data set with Human enriched platelets (0.25 mg/ml), the “Platelet Aggregation Activity” value turned out to be 49.7%, the “Platelet Aggregation Curve: Amplitude” value amounted to 8 ohm, the “Platelet Aggregation Curve: Area under curve” value was found to be 47.2 and the “Platelet Aggregation Curve: Lag time” value worked out at 128 s. Besides, the “Platelet Aggregation Curve: Slope” value in the data set on Human enriched platelets (0.25 mg/ml) is 1.
With `CC1=CCC2C(C1)C2(C)C` (stereo not shown) [Extract 3-Carene, 3-carene], the “Blood coagulation inhibition activity: aPTT” value in the data set with coagulation factors (0.5 mg/ml) is 1.23 ± 0.05; with coagulation factors (0.75 mg/ml) it was 1.61 ± 0.03; with coagulation factors (1.0 mg/ml) it was 2.26 ± 0.08; with coagulation factors (1.0 mg/ml, listed as 3-carene) it was 2.26. Also, the Solubility in water entry in data set [1] is given as “not soluble in water”. For the same compound, the “Blood coagulation inhibition activity: Prothrombin Time” value with prothrombin (0.5 mg/ml) was determined as 1.05 ± 0.02; in the data set with prothrombin (0.75 mg/ml) it was 1.29 ± 0.00; in the data set with prothrombin (1.0 mg/ml) it was 1.43 ± 0.09; in the data set on prothrombin (1.0 mg/ml, listed as 3-carene), 1.43.
In the case of Triton X-100, the “Human hemolytic activity” value in the data set on human erythrocytes (1.0 mg/ml, 37° C. 30 min, leaf section Table 4) is 100% and 100.0 ± 0.1%; in the data set on human erythrocytes (1.0 mg/ml, flower section Table 3), 100% and 100.6 ± 0.8%; in the data set with human erythrocytes (1.0 mg/ml, flower section Table 6), 100.6 ± 0.8%.
